Measured values reported in patent US10548829B2, “Oral care compositions and methods of use” (priority 2016, dated 2020).

How the values were obtained:
[1] = system: Aggregatibacter actinomycetemcomitans; assay: Growth inhibition (OD610), single culture; format: cell-based; conditions: A. actinomycetemcomitans
Method: (§1) Single species of Streptococcus gordonii (S. gordonii, S.g) strain V288 (ATCC #35105), Streptococcus sobrinus (S. sobrinus, S.$) strain SL1[CCM 6070, CNCTC 9/89] (ATCC #33478), or Aggregatibacter actinomycetemcomitans were analyzed. Also, a mixed culture containing Actinomyces viscosus (A. viscosus, A.v) strain (ATCC, #43146), Lactobacillus casei (L. casei, L.c) strain (ATCC #334), Streptococcus oralis (S. oralis, S. o) strain (ATCC #35037), Fusobacterium nucleatum (F. nucleatum, F. n) strain (ATCC #10953), and Veilonella parvula (V. parvula, V. p) strain (ATCC #17745) was also analyzed for growth inhibition/toxicity activity. Bacteria were cultured overnight in approximately 20 ml of BHI broth (BD, cat #237500) or maintained in a specialized complex modified BHI II medium in a continuous culture chemostat at 37° C. respectively. The following day, the OD610 were determined and solutions diluted to an OD610 of 0.2 or 0.1 respectively for the assay.
(§2) Triclosan (positive control) was prepared as a 10% stock in 100% EtOH and 3 fold serial dilutions were performed in 100% EtOH. An appropriate amount of the diluted samples was then transferred into a 96 well clear plate such that the resulting final concentration of the test samples ranged from either a 2 mM or 4 mM (highest concentration) to 0.0078 mM or 0.0156 mM (lowest concentration respectively) in 2% DMSO in 100 μl media per well. Triclosan (TCN) ranged from 0.01% to 1.67e-6% in 1% EtOH. For Zinc acetate, in order to mimic the 2:1 molar ratio (ligand:Zinc) in the Naringin:Zinc complex, the final concentration ranged from 0.7 mM to 0.0027 mM for samples with 2 mM as the highest concentration and 1.33 mM to […] for samples with 4 mM as the highest concentration in 2% DMSO. Next, 100 μl of bacterial culture at OD610 0.2 were introduced to the wells with the test samples. The wells were thoroughly mixed and incubated at 37° C. overnight. The plates were read using an Envision plate reader (PerkinElmer, Waltham, Mass.) at 610 nm.
(§3) The IC50 for the complex, Product 5, was determined for Streptococcus gordonii (S. gordonii), Streptococcus sobrinus (S. sobrinus), Aggregatibacter actinomycetemcomitans (A. actinomycetemcomitans), and also for the mixed bacterial culture. […] Triclosan (TCN) was included as a positive control for bacterial inhibition.
(§4) Further characterization was performed on planktonic oral microbes; Streptococcus sobrinus (Cariongenic—strain-SL1[CCM 6070, CNCTC 9/89] (ATCC cat. #33478), Streptococcus gordonii (Arginolytic—strain V288 (ATCC cat. #35105), Actinomyces viscosus) as well late colonizer (Gram −), pathogenic Aggregatibacter actinomycetemcomitans. All microbes were grown in their respective culture media: Streptococcus sobrinus and Streptococcus gordonii in BHI broth (BD, cat #237500), Aggregatibacter actinomycetemcomitans in BHI broth supplemented with 0.5% Yeast Extract (BD, cat #210941) and Actinomyces viscosus in Trypticase Soy Broth (BD, cat #211768) supplemented with 0.5% Yeast Extract (BD, cat #210941). Bacteria were cultured overnight in 37° C., 5% CO2 in approximately 20 ml of the appropriate culture broth. The following day, the OD610 was determined and solutions were diluted to 0.2 for the assay.
(§5) Triclosan (positive control) was prepared as a 10% stock in 100% EtOH and 3 fold serial dilutions were done in 100% EtOH. […] For Naringin+Zinc combination, while the highest total overall concentration was 2 mM, the exact concentration was Naringin (1.3 mM) and Zinc Acetate (0.7 mM) due to the compositions 2:1 molar ratio. For Zinc Acetate, in order to mimic the 2:1 ratio (ligand:Zinc) composition as in the complex, the final concentration ranged from 0.7 mM to 0.0027 mM in 2% DMSO.
(§6) A 100 μl aliquot of bacterial culture at OD610 0.2 were introduced to the wells with the test samples. The wells were thoroughly mixed and plates incubated overnight in a 37° C. incubator with or without 5% CO2 depending upon the bacterial species.

Streptococcus gordonii = assay: Growth inhibition (OD610), single culture; format: cell-based
Method: as §1, §2, §3, §4, §5, §6

Molecule `C[C@@H]1O[C@@H](O[C@H]2[C@H](Oc3cc(O)c4c(c3)O[C@H](c3ccc(O)cc3)CC4=O)O[C@H](CO)[C@@H](O)[C@@H]2O)[C@H](O)[C@H](O)[C@H]1O` [Naringin] has an inhibition at 500 µM ([1]; Aggregatibacter actinomycetemcomitans, 0.5 mM (combination 0.325 mM + 0.175 mM, 0.5 mM total)) of 5.01 ± 1.69% and an inhibition at 500 µM (Streptococcus gordonii; Streptococcus gordonii, S. gordonii, 0.5 mM (combination 0.325 mM + 0.175 mM, 0.5 mM total)) of 0.96 ± 2.82%.

For `CC(=O)[O-].CC(=O)[O-].[Zn+2]` [Zinc Acetate alone, Zinc (II) Acetate], the “% Inhibition” value ([1]; 0.175 mM) was 29.24 ± 0.42%, the “% Inhibition” value (Streptococcus gordonii; S. gordonii, 0.175 mM) was 13.51 ± 10.18% and the IC50 (Streptococcus gordonii; Streptococcus gordonii, overnight at 37° C., read-out: IC50) was 300 ± 20 µM.
